Results as given in ChEMBL document CHEMBL1146654, “3-(7-Azaindolyl)-4-arylmaleimides as potent, selective inhibitors of glycogen synthase kinase-3” (Bioorg Med Chem Lett, 2004).

What was measured:
[1] = molecular target: Protein kinase C gamma type (Homo sapiens, UniProt P05129); test: Inhibition of PKCgamma; set-up: scale not given: the % may be the effect or the level left
[2] = molecular target: Ribosomal protein S6 kinase (P70S6K) (Homo sapiens) (UniProt Q9UBS0+P23443); test: Inhibition of p70 Ribosomal protein S6 kinase; assay type: protein-complex assay; set-up: scale not given: the % may be the effect or the level left
[3] = molecular target: T1, Serine/threonine-protein kinase Sgk1 (Homo sapiens) (UniProt O00141); test: Inhibition of Serum/glucocorticoid regulated kinase; set-up: scale not given: the % may be the effect or the level left
T1 sequence (whole entry): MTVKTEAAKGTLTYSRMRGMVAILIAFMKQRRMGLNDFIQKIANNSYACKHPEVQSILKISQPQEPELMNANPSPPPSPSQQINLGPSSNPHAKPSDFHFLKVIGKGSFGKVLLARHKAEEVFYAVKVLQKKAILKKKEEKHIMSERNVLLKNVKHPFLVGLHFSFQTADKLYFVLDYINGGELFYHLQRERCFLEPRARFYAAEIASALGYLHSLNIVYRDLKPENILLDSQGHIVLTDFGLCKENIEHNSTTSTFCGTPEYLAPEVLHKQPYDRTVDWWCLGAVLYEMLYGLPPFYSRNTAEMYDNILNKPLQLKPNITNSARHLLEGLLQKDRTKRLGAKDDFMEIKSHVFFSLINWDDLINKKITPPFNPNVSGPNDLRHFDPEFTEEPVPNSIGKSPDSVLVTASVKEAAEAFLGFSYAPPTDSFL

[4] = molecular target: T2, MAP kinase-activated protein kinase 5 (Homo sapiens) (UniProt Q8IW41); test: Inhibition of PRAK, MAPK5; set-up: scale not given: the % may be the effect or the level left
T2 sequence (whole entry): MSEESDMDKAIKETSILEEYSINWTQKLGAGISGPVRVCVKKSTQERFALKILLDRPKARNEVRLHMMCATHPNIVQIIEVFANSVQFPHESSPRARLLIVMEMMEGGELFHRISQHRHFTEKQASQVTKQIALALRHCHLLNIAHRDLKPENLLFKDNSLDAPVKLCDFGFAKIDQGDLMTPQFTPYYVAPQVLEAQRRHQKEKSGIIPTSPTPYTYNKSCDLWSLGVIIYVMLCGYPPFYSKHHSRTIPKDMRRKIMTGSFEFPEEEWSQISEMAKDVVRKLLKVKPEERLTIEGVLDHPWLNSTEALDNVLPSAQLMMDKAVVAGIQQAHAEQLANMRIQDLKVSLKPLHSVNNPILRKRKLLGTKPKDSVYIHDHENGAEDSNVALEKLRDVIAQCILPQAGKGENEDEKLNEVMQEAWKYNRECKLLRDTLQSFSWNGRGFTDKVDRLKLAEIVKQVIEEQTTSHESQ

[5] = molecular target: Ribosomal protein S6 kinase alpha-2 (Homo sapiens) (UniProt Q15349); test: Inhibition of Ribosomal S6 kinase 2; set-up: scale not given: the % may be the effect or the level left
Ribosomal protein S6 kinase alpha-2 (Homo sapiens), sequence (Q15349 whole entry): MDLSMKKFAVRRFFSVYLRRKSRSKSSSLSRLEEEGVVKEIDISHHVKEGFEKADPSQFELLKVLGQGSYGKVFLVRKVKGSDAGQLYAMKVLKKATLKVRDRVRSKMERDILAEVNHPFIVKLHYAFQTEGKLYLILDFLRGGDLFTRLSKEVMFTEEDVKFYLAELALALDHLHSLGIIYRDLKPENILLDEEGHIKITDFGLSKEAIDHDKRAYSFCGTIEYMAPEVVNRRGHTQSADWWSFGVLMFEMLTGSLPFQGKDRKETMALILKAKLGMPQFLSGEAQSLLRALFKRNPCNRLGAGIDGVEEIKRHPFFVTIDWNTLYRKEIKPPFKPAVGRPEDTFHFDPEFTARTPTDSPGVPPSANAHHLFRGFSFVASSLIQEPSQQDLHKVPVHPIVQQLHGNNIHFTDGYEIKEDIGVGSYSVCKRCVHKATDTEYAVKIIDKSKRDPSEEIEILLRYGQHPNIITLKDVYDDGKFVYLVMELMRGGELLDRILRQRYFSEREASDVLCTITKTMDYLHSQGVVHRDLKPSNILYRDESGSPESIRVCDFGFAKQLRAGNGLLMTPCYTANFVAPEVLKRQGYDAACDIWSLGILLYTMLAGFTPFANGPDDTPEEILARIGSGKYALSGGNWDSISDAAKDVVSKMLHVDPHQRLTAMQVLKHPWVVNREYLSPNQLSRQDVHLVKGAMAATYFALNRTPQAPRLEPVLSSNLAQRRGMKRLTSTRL

[6] = molecular target: T3, Inhibitor of nuclear factor kappa-B kinase subunit alpha (Homo sapiens) (UniProt O15111); test: Inhibition of I kappa-B kinase alpha; set-up: scale not given: the % may be the effect or the level left
T3 sequence (whole entry): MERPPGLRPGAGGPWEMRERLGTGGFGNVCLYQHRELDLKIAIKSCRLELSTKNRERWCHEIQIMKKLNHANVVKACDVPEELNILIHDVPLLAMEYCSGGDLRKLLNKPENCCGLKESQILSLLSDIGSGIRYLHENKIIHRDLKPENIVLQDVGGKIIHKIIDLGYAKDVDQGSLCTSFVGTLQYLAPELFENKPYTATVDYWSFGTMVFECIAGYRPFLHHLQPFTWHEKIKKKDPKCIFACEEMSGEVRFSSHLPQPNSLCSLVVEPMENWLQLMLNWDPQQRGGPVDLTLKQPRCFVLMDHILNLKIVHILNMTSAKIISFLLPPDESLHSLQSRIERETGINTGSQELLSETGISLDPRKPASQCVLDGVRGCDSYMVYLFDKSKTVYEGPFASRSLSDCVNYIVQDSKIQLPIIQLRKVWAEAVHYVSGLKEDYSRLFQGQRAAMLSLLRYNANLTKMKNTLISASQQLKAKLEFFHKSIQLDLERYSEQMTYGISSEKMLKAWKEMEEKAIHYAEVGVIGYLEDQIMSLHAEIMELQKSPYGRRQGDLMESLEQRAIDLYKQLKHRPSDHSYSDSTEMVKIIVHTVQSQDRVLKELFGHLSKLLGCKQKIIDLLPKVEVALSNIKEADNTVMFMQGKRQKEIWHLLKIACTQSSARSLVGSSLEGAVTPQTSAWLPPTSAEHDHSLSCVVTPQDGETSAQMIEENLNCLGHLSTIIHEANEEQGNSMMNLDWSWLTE

[7] = molecular target: Serine/threonine-protein kinase Chk2 (Homo sapiens) (UniProt O96017); test: Inhibition of Serine/threonine-protein kinase Chk2; set-up: scale not given: the % may be the effect or the level left
Serine/threonine-protein kinase Chk2 (Homo sapiens), sequence (O96017 whole entry): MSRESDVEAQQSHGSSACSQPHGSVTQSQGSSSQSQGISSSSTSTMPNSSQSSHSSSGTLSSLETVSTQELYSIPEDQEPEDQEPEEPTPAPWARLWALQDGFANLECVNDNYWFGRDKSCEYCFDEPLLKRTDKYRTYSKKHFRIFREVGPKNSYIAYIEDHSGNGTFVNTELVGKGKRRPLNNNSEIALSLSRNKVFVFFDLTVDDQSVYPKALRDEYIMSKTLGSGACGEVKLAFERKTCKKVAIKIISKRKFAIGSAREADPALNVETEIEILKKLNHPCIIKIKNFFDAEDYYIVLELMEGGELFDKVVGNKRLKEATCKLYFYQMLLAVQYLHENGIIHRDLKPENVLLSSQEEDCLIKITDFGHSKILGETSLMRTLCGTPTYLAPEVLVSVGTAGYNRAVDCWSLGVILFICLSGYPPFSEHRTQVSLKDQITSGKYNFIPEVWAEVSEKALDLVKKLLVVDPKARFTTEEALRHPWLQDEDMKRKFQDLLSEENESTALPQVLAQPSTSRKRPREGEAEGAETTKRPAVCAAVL

Mus musculus = organism: Mus musculus; test: Inhibition of Abl kinase; set-up: scale not given: the % may be the effect or the level left
[8] = molecular target: Tyrosine-protein kinase Lyn (Mus musculus) (UniProt P25911); test: Inhibition of Protein tyrosine kinase Lyn; set-up: scale not given: the % may be the effect or the level left
Tyrosine-protein kinase Lyn (Mus musculus), sequence (P25911 whole entry): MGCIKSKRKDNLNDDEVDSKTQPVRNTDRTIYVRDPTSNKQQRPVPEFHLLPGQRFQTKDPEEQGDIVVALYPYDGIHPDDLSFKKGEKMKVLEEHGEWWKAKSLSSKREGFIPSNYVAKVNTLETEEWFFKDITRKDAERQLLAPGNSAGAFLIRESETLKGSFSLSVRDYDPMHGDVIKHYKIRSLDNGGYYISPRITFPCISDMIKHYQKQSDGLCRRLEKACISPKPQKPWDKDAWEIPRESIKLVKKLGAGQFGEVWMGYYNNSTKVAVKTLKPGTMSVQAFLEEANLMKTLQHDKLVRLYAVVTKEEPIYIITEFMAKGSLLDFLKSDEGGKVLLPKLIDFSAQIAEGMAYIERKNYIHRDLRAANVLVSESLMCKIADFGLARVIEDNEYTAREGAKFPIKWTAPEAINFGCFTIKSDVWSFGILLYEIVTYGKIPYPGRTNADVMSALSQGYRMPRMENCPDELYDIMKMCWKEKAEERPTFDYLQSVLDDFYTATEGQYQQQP

[9] = molecular target: Tyrosine-protein kinase CSK (Homo sapiens) (UniProt P41240); test: Inhibition of Tyrosine-protein kinase CSK; set-up: scale not given: the % may be the effect or the level left
Tyrosine-protein kinase CSK (Homo sapiens), sequence (P41240 2-450 limits assumed): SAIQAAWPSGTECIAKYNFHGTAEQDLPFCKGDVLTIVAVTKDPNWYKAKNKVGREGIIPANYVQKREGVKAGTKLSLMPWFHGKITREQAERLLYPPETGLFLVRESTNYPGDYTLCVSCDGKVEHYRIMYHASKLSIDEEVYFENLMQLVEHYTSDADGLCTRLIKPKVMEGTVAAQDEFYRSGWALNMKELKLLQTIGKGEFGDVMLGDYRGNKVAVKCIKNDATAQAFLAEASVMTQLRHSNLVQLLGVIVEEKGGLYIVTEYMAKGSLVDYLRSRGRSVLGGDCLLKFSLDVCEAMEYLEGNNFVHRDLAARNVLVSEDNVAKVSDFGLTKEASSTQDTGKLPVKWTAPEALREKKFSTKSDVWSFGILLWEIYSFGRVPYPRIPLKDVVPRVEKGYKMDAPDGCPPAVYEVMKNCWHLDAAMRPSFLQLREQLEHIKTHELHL

Rattus norvegicus = organism: Rattus norvegicus; test: Inhibition of AMP-activated Protein Kinase; set-up: scale not given: the % may be the effect or the level left
[10] = molecular target: Protein kinase C theta type (Homo sapiens) (UniProt Q04759); test: Inhibition of PKCtheta; set-up: scale not given: the % may be the effect or the level left
Protein kinase C theta type (Homo sapiens), sequence (Q04759 whole entry, looked up): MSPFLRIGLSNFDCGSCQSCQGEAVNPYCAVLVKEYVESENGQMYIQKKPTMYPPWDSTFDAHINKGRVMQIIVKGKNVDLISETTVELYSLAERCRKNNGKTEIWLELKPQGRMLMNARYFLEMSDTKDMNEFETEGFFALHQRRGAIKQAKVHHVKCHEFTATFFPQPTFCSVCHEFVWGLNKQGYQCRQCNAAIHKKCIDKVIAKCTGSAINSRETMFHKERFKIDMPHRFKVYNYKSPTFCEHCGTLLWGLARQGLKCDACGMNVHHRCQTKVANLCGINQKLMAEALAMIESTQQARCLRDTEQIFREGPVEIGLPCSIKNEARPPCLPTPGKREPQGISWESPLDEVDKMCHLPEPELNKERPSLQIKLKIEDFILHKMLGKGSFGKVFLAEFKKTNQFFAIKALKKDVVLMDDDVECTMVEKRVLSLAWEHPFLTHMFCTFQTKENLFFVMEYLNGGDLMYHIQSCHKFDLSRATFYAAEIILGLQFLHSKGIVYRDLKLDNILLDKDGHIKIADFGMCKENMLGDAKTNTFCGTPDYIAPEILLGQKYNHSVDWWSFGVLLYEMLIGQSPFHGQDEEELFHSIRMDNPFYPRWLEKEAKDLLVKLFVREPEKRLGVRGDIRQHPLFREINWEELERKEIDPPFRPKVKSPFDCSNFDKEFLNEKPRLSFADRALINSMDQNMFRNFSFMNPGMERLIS

[11] = molecular target: T4, Tyrosine-protein kinase ZAP-70 (Homo sapiens) (UniProt P43403); test: Inhibition of Zeta-chain (TCR) associated protein kinase 70 kDa (ZAP70); set-up: scale not given: the % may be the effect or the level left
T4 sequence (whole entry): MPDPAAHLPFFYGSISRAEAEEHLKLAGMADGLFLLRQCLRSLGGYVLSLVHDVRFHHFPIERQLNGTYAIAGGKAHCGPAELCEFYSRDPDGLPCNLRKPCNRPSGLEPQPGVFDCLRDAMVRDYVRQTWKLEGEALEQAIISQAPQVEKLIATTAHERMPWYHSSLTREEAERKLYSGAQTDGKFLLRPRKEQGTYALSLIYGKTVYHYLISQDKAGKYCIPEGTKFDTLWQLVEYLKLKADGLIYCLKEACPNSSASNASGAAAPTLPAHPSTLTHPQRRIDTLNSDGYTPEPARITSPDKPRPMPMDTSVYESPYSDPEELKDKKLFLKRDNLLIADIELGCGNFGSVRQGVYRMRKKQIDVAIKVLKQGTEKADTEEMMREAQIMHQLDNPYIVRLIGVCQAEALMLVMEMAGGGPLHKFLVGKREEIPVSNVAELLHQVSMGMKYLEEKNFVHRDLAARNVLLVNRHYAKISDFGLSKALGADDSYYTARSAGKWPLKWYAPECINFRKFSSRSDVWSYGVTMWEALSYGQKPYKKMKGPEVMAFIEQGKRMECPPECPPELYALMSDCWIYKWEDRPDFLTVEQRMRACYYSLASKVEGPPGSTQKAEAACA

[12] = molecular target: Tyrosine-protein kinase Lck (Homo sapiens) (UniProt P06239); test: Inhibition of p56 Lck tyrosine kinase; set-up: scale not given: the % may be the effect or the level left
Tyrosine-protein kinase Lck (Homo sapiens), sequence (P06239 2-509 limits assumed): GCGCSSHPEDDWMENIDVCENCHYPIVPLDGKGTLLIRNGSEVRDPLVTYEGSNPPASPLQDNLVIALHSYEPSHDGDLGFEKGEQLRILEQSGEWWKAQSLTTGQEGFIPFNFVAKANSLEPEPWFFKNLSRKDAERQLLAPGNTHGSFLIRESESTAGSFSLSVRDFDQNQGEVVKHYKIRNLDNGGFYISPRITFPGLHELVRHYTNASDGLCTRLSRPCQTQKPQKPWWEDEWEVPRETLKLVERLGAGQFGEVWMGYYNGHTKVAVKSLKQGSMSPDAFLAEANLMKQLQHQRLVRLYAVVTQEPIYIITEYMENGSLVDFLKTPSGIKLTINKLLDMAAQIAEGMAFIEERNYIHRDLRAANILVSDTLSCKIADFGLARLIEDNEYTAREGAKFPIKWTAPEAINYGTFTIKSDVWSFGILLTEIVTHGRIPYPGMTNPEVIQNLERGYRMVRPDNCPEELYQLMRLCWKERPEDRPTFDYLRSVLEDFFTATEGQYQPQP

[13] = molecular target: CDK6/cyclin D3 (Homo sapiens) (UniProt P30281+Q00534); test: Inhibition of Cyclin-dependent kinase 6-cyclin D3; assay type: protein-complex assay; set-up: scale not given: the % may be the effect or the level left
[14] = molecular target: Protein kinase C alpha type (Homo sapiens, UniProt P17252); test: Inhibitory activity of 10 uM compound against protein kinase C-alpha using histone as substrate
[15] = molecular target: Insulin receptor (Homo sapiens) (UniProt P06213); test: Inhibition of IR kinase; set-up: scale not given: the % may be the effect or the level left

COc1ccccc1C1=C(c2cn(CCCNC(=O)OC(C)(C)C)c3ncccc23)C(=O)NC1=O
Activity [1]: 76%
Activity [2]: 82%
Activity [3]: 105%
Activity [4]: 57%
Activity [5]: 31%
Activity [6]: 89%
Activity [7]: 49%
Activity (Mus musculus): 91%
Activity [8]: 20%
Activity [9]: 95%
Activity (Rattus norvegicus): 64%
Activity [10]: 71%
Activity [11]: 112%
Activity [12]: 67%
Activity [13]: 24%
inhibition [14]: < 50%
Activity [15]: 94%

COCCCn1cc(C2=C(c3ccccc3O)C(=O)NC2=O)c2cccnc21
Activity [1]: 59%
Activity [2]: 87%
Activity [3]: 98%
Activity [4]: 82%
Activity [5]: 54%
Activity [6]: 83%
Activity [7]: 75%
Activity (Mus musculus): 86%
Activity [8]: 81%
Activity [9]: 89%
Activity (Rattus norvegicus): 68%
Activity [10]: 46%
Activity [11]: 100%
Activity [12]: 84%
Activity [13]: 50%
inhibition [14]: < 50%
Activity [15]: 88%

O=C1NC(=O)C(c2cn(CCCO)c3ncccc23)=C1c1ncc(C(F)(F)F)cc1Cl
Activity [1]: 72%
Activity [2]: 88%
Activity [3]: 87%
Activity [4]: 59%
Activity [5]: 77%
Activity [6]: 76%
Activity [7]: 92%
Activity (Mus musculus): 93%
Activity [8]: 85%
Activity [9]: 74%
Activity (Rattus norvegicus): 74%
Activity [10]: 66%
Activity [11]: 91%
Activity [12]: 82%
Activity [13]: 59%
inhibition [14]: < 50%
Activity [15]: 95%
